Measured values from patent US20230234965A1, “N-LINKED MACROCYCLIC 4-(PYRAZOL-5-YL)-INDOLE DERIVATIVES AS INHIBITORS OF MCL-1” (Janssen Pharmaceutica NV, priority 2020, published 2023).

Assays:
[1] = target: Myeloid Cell Leukemia 1 (Mcl-1) (Homo sapiens, UniProt Q07820); assay: Terbium labeled Mcl-1 HTRF binding assay (displacement of Cy5-labeled BIM BH3 peptide); settings: 25 pM Tb-Mcl-1, 8 nM Cy5 Bim peptide, [L] = 8 nM, Kd = 10 nM, 60 minutes at room temperature, read-out: Tb-MCL1 Ki
Protocol: Terbium labeled Myeloid Cell Leukemia 1(Mcl-1) homogeneous time-resolved fluorescence (HTRF) binding assay utilizing the BIM BH3 peptide (H2N-(C/Cy5Mal) WIAQELRRIGDEFN-OH) as the binding partner for Mcl-1.
This assay evaluated inhibition of the BH3 domain : Mcl-1 interaction by measuring the displacement of Cy5-labeled BIM BH3 peptide (H2N-(C/Cy5Mal) WIAQELRRIGDEFN-OH) in the HTRF assay format.
The following assay and stock buffers were prepared for use in the assay: (a) Stock buffer: 10 mM Tris-HCl, pH=7.5 + 150 mM NaCl, filtered, sterilized, and stored at 4° C.; and (b) 1X assay buffer, where the following ingredients were added fresh to stock buffer: 2 mM dithiothreitol (DTT), 0.0025% Tween-20, 0.1 mg/mL bovine serum albumin (BSA). The 1X Tb-Mcl-1 + Cy5 Bim peptide solution was prepared by diluting the protein stock solution using the 1X assay buffer (b) to 25 pM Tb-Mcl-1 and 8 nM Cy5 Bim peptide.
Using the Acoustic ECHO, 100 nL of 100x test compound(s) were dispensed into individual wells of a white 384-well Perkin Elmer Proxiplate, for a final compound concentration of 1x and final DMSO concentration of 1%. Inhibitor control and neutral control (NC, 100 nL of 100% DMSO) were stamped into columns 23 and 24 of assay plate, respectively. Into each well of the plate was then dispensed 10µL of the 1X Tb-Mcl-1 + Cy5 Bim peptide solution. The plate was centrifuged with a cover plate at 1000 rpm for 1 minute, then incubated for 60 minutes at room temperature with plates covered. The TR-FRET signal was read on an BMG PHERAStar FSX MicroPlate Reader at room temperature using the HTRF optic module (HTRF: excitation: 337 nm, light source: laser, emission A: 665 nm, emission B: 620 nm, integration start: 60 µs, integration time: 400 µs).
The BMG PHERAStar FSX MicroPlate Reader was used to measure fluorescence intensity at two emission wavelengths - 665 nm and 620 nm - and report relative fluorescence units (RFU) for both emissions, as well as a ratio of the emissions (665 nm/620 nm)*10,000. The RFU values were normalized to percent inhibition as follows: • % inhibition = (((NC - IC) - compound - IC)) / (NC - IC)) *100 where IC (inhibitor control, low signal) = mean signal of 1X Tb-MCl-1 + Cy5 Bim peptide+ inhibitor control or 100% inhibition of Mcl-1; NC (neutral control, high signal) = mean signal 1X Tb-MCl-1 + Cy5 Bim peptide with DMSO only or 0% inhibition An 11-point dose response curve was generated to determine IC50 values (using GenData) based on the following equation:
where Y = % inhibition in the presence of X inhibitor concentration; Top = 100% inhibition derived from the IC (mean signal of Mcl-1 + inhibitor control); Bottom = 0% inhibition derived from the NC (mean signal of Mcl-1 + DMSO); Hillslope = Hill coefficient; and IC50 = concentration of compound with 50% inhibition in relation to top/neutral control (NC).
In this assay [L] = 8 nM and Kd = 10 nM

[2] = system: MOLP-8 human multiple myeloma cell line; assay: Caspase-Glo 3/7 apoptosis induction assay in MOLP-8 cells; assay type: cell-based; settings: MOLP8 cells, 2 hours at 37° C.; 30 µM highest conc.; averaged over all runs on all batches
Excerpt: MCL-1 is a regulator of apoptosis and is highly over-expressed in tumor cells that escape cell death. The assay evaluates the cellular potency of small-molecule compounds targeting regulators of the apoptosis pathway, primarily MCL-1, Bfl-1, Bcl-2, and other proteins of the Bcl-2 family. Protein-protein inhibitors disrupting the interaction of anti-apoptotic regulators with BH3-domain proteins initiate apoptosis.
The Caspase-Glo® 3/7 Assay is a luminescent assay that measures caspase-3 and -7 activities in purified enzyme preparations or cultures of adherent or suspension cells. The assay provides a proluminescent caspase-3/7 substrate, which contains the tetrapeptide sequence DEVD. This substrate is cleaved to release aminoluciferin, a substrate of luciferase used in the production of light. Addition of the single Caspase-Glo® 3/7 Reagent in an “add-mix-measure” format results in cell lysis, followed by caspase cleavage of the substrate and generation of a “glow-type” luminescent signal.
This assay uses the MOLP-8 human multiple myeloma cell line, which is sensitive to MCL-1 inhibition.
Cell cultures were maintained between 0.2 and 2.0 ×10^6 cells/mL. The cells were harvested by collection in 50 mL conical tubes. The cells were then pelleted at 500 g for 5 mins before removing supernatant and resuspension in fresh pre-warmed culture medium. The cells were counted and diluted as needed.
The assay reagent was prepared by transferring the buffer solution to the substrate vial and mixing. The solution may be stored for up to 1 week at 4° C. with negligible loss of signal.
Compounds were delivered in assay-ready plates (Proxiplate) and stored at -20° C. Assays always include 1 reference compound plate containing reference compounds. The plates were spotted with 40 nL of compounds (0.5% DMSO final in cells; serial dilution; 30 µM highest conc. ⅓ dilution, 10 doses, duplicates). The compounds were used at room temperature and 4 µL of pre-warmed media was added to all wells except column 2 and 23. The negative control was prepared by adding 1% DMSO in media. The positive control was prepared by adding the appropriate positive control compound in final concentration of 60 µM in media. The plate was prepared by adding 4 µL negative control to column 23, 4 µL positive control to column 2 and 4 µL cell suspension to all wells in the plate. The plate with cells was then incubated at 37° C. for 2 hours. The assay signal reagent is the Caspase-Glo solution described above, and 8 µL was added to all wells. The plates were then sealed and measured after 30 minutes.
The activity of a test compound was calculated as percent change in apoptosis induction as follows:
• %Effect (AC50) = 100 - ((sample-LC) / (HC-LC)) *100 • %Control = (sample /HC)* 100 • %Control min = ((sample-LC) / (HC-LC)) *100

Sequence of Myeloid Cell Leukemia 1 (Mcl-1) (Q07820 whole entry): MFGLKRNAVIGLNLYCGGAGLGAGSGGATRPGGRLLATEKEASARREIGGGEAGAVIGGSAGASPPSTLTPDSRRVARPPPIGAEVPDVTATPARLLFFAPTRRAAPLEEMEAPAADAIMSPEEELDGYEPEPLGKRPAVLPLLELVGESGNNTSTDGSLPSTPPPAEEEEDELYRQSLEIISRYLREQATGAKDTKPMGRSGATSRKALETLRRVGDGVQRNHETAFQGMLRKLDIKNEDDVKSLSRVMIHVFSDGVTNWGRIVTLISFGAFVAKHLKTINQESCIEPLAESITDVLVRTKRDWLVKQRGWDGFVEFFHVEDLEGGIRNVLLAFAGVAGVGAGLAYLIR

SMILES | Ki [1] | AC50 [2]
Cc1nn2c(c1C)-c1c(Cl)ccc3c1c(C)c(C(=O)O)n3CCCOc1cc(cc3cc(F)ccc13)CCc1cc(nn1C)CCC2 (single isomer, unassigned) [Compound 1] | 0.04 nM | 26 nM
Cc1nn2c(c1C)-c1c(Cl)ccc3c1c(C)c(C(=O)O)n3CCCOc1cc(cc3cc(F)ccc13)CCc1cc(nn1C)CCC2 (single isomer, unassigned) [Compound 2] | 3.28 nM | 1930 nM
Cc1nn2c(c1C)-c1c(Cl)ccc3c1c(C)c(C(=O)O)n3CCCOc1cc(cc3ccccc13)SCc1cc(nn1C)CCC2 (single isomer, unassigned) [Compound 3] | 0.1 nM | 131 nM
Cc1nn2c(c1C)-c1c(Cl)ccc3c1c(C)c(C(=O)O)n3CCCOc1cc(cc3ccccc13)SCc1cc(nn1C)CCC2 (single isomer, unassigned) [Compound 4] | 1.57 nM | 4010 nM
Cc1nn2c(c1C)-c1c(Cl)ccc3c1c(C)c(C(=O)O)n3CCCOc1cc(cc3ccccc13)SCc1cn(nn1)CCC2 (single isomer, unassigned) [Compound 5] | 5.21 nM | 8180 nM
Cc1nn2c(c1C)-c1c(Cl)ccc3c1c(C)c(C(=O)O)n3CCCOc1cc(cc3ccccc13)SCc1cn(nn1)CCC2 (single isomer, unassigned) [Compound 6] | 445 nM | > 30000 nM
Cc1nn2c(c1C)-c1c(Cl)ccc3c1c(C)c(C(=O)O)n3CCCOc1cc(cc3ccccc13)SCc1cnn(c1)CCC2 (single isomer, unassigned) [Compound 7] | 0.95 nM | 3180 nM
Cc1nn2c(c1C)-c1c(Cl)ccc3c1c(C)c(C(=O)O)n3CCCOc1cc(cc3ccccc13)SCc1cnn(c1)CCC2 (single isomer, unassigned) [Compound 8] | 422 nM | 27500 nM
